From ChEMBL document CHEMBL1151183, “New pigments from the terrestrial cyanobacterium Scytonema sp. collected on the Mitaraka inselberg, French Guyana” (J Nat Prod, 2004)
Calls of active or inactive are those of the source.

Legend:
KB = test: Cytotoxicity against human KB cells at 0.1 uM; format: functional, cell-based
Escherichia coli = test: Antimicrobial activity against Escherichia coli ATCC 8739 at 1 uM; format: functional, organism-based
Candida tropicalis = test: Antimicrobial activity against Candida tropicalis IP 209.73 at 1 uM; format: functional, organism-based
Staphylococcus aureus = test: Antimicrobial activity against Staphylococcus aureus ATCC 6538 at 1 uM; format: functional, organism-based

Measured: Activity

COC(c1ccc(O)cc1)C1(OC)C(=O)/C(=C2/C(=O)/C(=C/c3ccc(O)cc3)c3[nH]c4ccccc4c32)c2c1[nH]c1ccccc21 (configuration not stated)
inactive: KB Not toxic | Escherichia coli | Candida tropicalis | Staphylococcus aureus

COC(c1ccc(O)cc1)C1(OC)C(=O)/C(=C2/C(=O)C(OC)(C(OC)c3ccc(O)cc3)c3[nH]c4ccccc4c32)c2c1[nH]c1ccccc21 (configuration not stated)
inactive: KB Not toxic | Escherichia coli | Candida tropicalis | Staphylococcus aureus

COC(=O)C1=C(c2c(/C(=C\c3ccc(O)cc3)C(=O)OC)[nH]c3ccccc23)C(=O)c2[nH]c3ccccc3c21
inactive: KB Not toxic | Escherichia coli | Candida tropicalis | Staphylococcus aureus
